Laboratory results published in publication PMC12124432, “Antimicrobial Peptide‐Peptoid Macrocycles from the Polymyxin B2 Chemical Space” (Angewandte Chemie (International Ed. in English), 2025).
In brackets after ≈: the same amount, converted by molar mass. Bridge positions count the residues as written; N and C are the ends. Square brackets hold non-standard residues; d marks the D form. Peptide text beside a SMILES is read from it. * marks the point of attachment. N(3-phenylpropyl)Gly = O=C(O)CNCCCc1ccccc1; Gly(NCH2CH2Ph) = O=C(O)CNCCc1ccccc1; Gly(N-2-aminoethyl) = NCCNCC(=O)O; Gly(N(CH2)3NH2) = NCCCNCC(=O)O; Gly(N-cPent) = O=C(O)CNC1CCCC1; Heptanoyl = CCCCCCC(=O)*; Nphe = O=C(O)CNCc1ccccc1; Octanoyl = CCCCCCCC(=O)*; Dab = NCC[C@H](N)C(=O)O; NPrGly = CCCNCC(=O)O

Assays:
[1] = tested on: E. coli W3110; type: cell-based, Escherichia coli; details: for Effect of salt on antibacterial activity against E. coli: NaCl 0-300 mM in 12.5% Mueller-Hinton broth at pH 8.5; for MIC on E. coli, 0 mM NaCl / MIC on E. coli, 100 mM NaCl / MIC on E. coli, 200 mM NaCl / MIC on E. coli, 300 mM NaCl: W3110, pH 8.5
Description: (§1) Minimal Inhibitory Concentration (MIC)
(§2) Antimicrobial activity was assayed for all the peptide-peptoids against P. aeruginosa PAO1, K. pneumoniae NCTC418, E. coli W3110, A. baumannii ATCC 19606, methicillin-resistant S. aureus COL (MRSA) and for selected peptides on P. aeruginosa PA14, as well as the clinical isolates ZEM-1A and ZEM9A, K. pneumoniae OXA-48, Enterobacter cloacae, Stenotrophomonas maltophilia and Staphylococus epidermidis. To determine the Minimal Inhibitory Concentration (MIC), Broth Microdilution method was used. A colony of bacteria was picked and grown in LB medium overnight at 37 °C. The next day, the culture was then regrown in LB medium to log phase (OD600 = 0.6 to 0.8), which lasted approximately 4 hours, and diluted to an OD600 of 0.022 in the desired medium (full MH or 12.5% MH).
(§3) The compounds were prepared as stock solutions of 2 mg/mL in sterilized MilliQ deionized water and then diluted in the desired media (full MH or 12.5% MH) to reach the first concentration tested (32 μg/mL). The compounds were added to the first well of a 96-well sterile, round bottom microtiter plates in polystyrene (TPP®, untreated) and diluted serially by ½ in the desired media (full MH or 12.5% MH), to a final volume of 150 µL/well. To each well was finally added 4 µL of the diluted bacterial suspension (see above), corresponding to approximately 5×10^5 CFU. For each test, two columns of the plate were kept for sterility control (medium only), growth control (medium with bacterial inoculum, no compound). The positive control, Polymyxin B (starting with a concentration of 16 µg/mL) in MH medium with bacterial inoculums, was introduced in the two first lines of the plate. The plates were incubated at 37 °C for ca. 18 hours under static conditions. 15 µL of 3-(4,5-dimethylthiazol-2-yl)-2,5-diphenyltetrazolium bromide (MTT)[7] (1 mg/mL in sterilized MilliQ deionized water) were added to each well and the plates were incubated for 20-30 minutes at room temperature. The […]
(§4) minimal inhibitory concentration (MIC) was defined as the lowest concentration of the compound that inhibits the visible growth of the tested bacteria (yellow) with the unaided eye.
(§5) Minimal Hemolytic Concentration (MHC) […]
(§6) 11. Minimal inhibitory in presence of salt
(§7) The same procedure as for the antibacterial activity measurements by minimal inhibitory concentration assay (MIC) was applied. The media, 12.5% Mueller-Hinton broth was this time supplemented with different salt concentrations (0, 100, 200 300 mM NaCl). […]
(§8) All data, in μg/mL, measured against P. aeruginosa PAO1, with or without addition of salt (NaCl). The values were measured in dilute medium (12.5% MH) and at slightly basic pH (pH = 8.5), after incubation for 16-20 h at 37 °C. Values represent two different duplicate MIC determinations.

[2] = tested on: P. aeruginosa PAO1; type: cell-based, Pseudomonas aeruginosa; details: for Effect of salt on antibacterial activity against P. aeruginosa: NaCl 0-300 mM in 12.5% Mueller-Hinton broth at pH 8.5; for MIC on P. aeruginosa, 0 mM NaCl / MIC on P. aeruginosa, 100 mM NaCl / MIC on P. aeruginosa, 200 mM NaCl / MIC on P. aeruginosa, 300 mM NaCl: PAO1, pH 8.5
Description: as §1, §2, §3, §4, §5, §6
as §7, with “NaCl). The MIC activities were then determined against Pseudomonas aeruginosa PAO1 and Escherichia coli” for “NaCl).”
Table S6. Minimal inhibitory concentration (MIC) on P. aeruginosa PAO1 as function of salt […]
as §8

[3] = Dansyl-polymyxin (DsPMB) displacement assay; type: binding, Pseudomonas aeruginosa; details: 37 °C, 2.5 µM DsPMB, LPS 3 μg/mL, emission 485 nm; mean ± SD, n = 3
Description: 14. Dansyl-Polymyxin (DsPMB) Displacement Assay
Saturation determination. Dansyl-polymyxin (DsPMB) in water (1.5 mg/mL) and lyophilized lipopolysaccharides from P. aeruginosa were obtained from Merck. LPS were prepared as a 1 mg/mL stock solution in mQ water and stored at 4 °C. The fluorescence saturation of DsPMB with LPS was first determined, by titration (0.25 μM increments, up to 5 μM) of the DsPMB into a 3 μg/mL of LPS (10 mM Tris, 10 mM NaCl buffer, pH 7.4), at 37 °C. The fluorescence was recorded with a Jasco spectrofluorometer FP-8300, with the excitation at λex = 340 nm (5 nm slit width) and recorded from 420 to 650 nm. The fluorescence was recorded two minutes after each addition. Saturation was graphically determined, at a concentration of D sPMB ≈ 2.5 μM (λem = 485 nm). Each measurement was determined in triplicates.
Displacement assay. The displacement effect of the various peptides was determined by measuring the reduction of fluorescence intensity, at 37 °C. Initially, DsPMB (2.5 μM) was mixed with LPS (3 μg/mL) and let it react for 15 minutes before recording the fluorescence […]
intensity (at λem = 485 nm and λex = 340 nm). Then, the peptide was titrated (1 μM increments, up to 10 μM) into the DsPMB/LPS mixture, and the fluorescence was recorded two minutes after the compound addition. The decrease in fluorescence was interpreted as the displacement of DsPMB from the LPS due to competitive binding by the peptide.[12,13] Specific Fluorescence Enhancement
Figure S8. Fluorescence emission of dansyl-polymyxin (DsPMB) in presence of lipopolysaccharide (LPS) extracted from P. aeruginosa (3 µg/mL) in TRIS/NaCl buffer (10 mM, pH 7.4). The fluorophore was excited at 340 nm (5 nm slit width) and recorded from 420 to 650 nm. The data represent mean value from three measurement. Specific fluorescence represents the emission of DsPMB with the non-specific fluorescence (no LPS) deduced.

Row | SMILES | Effect of salt on antibacterial activity against E. coli [1] | MIC on E. coli, 0 mM NaCl [1] | MIC on E. coli, 100 mM NaCl [1] | MIC on E. coli, 200 mM NaCl [1] | MIC on E. coli, 300 mM NaCl [1] | Effect of salt on antibacterial activity against P. aeruginosa [2] | MIC on P. aeruginosa, 0 mM NaCl [2] | MIC on P. aeruginosa, 100 mM NaCl [2] | MIC on P. aeruginosa, 200 mM NaCl [2] | MIC on P. aeruginosa, 300 mM NaCl [2] | Binding to lipopolysaccharide (dansyl-PMB fluorescence displacement) [3]
1 | CCCCCCCC(=O)N(CCc1ccccc1)CC(=O)N[C@@H](CCCCN)C(=O)N[C@@H](CC(N)=O)C(=O)N[C@H]1CCNC(=O)[C@H](CCCCN)NC(=O)CN(CCCN)C(=O)[C@H](CCCCN)NC(=O)CN(CCC)C(=O)[C@H](CCCCN)NC1=O [EB12] (Octanoyl-[Gly(NCH2CH2Ph)]KN[Dab]K[NPrGly]K[Gly(N(CH2)3NH2)]K; lactam 4-C) | inhibited by high salt concentrations | 1 µg/mL (≈ 0.815 µM) | 2 µg/mL (≈ 1.63 µM) | 4 µg/mL (≈ 3.26 µM) | 16 µg/mL (≈ 13 µM) | inhibited by high salt concentrations | 2 to 4 µg/mL | 32 µg/mL (≈ 26.1 µM) | > 64 µg/mL | > 64 µg/mL | to a similar extent as PMB2 itself
2 | CCCCCCC(=O)N[C@H](C(=O)N(CCN)CC(=O)N(CCCc1ccccc1)CC(=O)N[C@H]1CCNC(=O)[C@H](CCCCN)NC(=O)CN(CCCN)C(=O)[C@H](CCCCN)NC(=O)CNC(=O)[C@H](CCCCN)NC1=O)C(C)C [EB13] (Heptanoyl-V[Gly(N-2-aminoethyl)][N(3-phenylpropyl)Gly][Dab]KGK[Gly(N(CH2)3NH2)]K; lactam 4-C) | inhibited by high salt concentrations | 0.5 µg/mL (≈ 0.438 µM) | 16 µg/mL (≈ 14 µM) | > 64 µg/mL | > 64 µg/mL | inhibited by high salt concentrations | 4 µg/mL (≈ 3.5 µM) | > 64 µg/mL | > 64 µg/mL | > 64 µg/mL | to a similar extent as PMB2 itself
3 | CCCCCCCC(=O)N[C@@H](CCCCN)C(=O)N(CC(=O)N[C@@H](CCCCN)C(=O)N[C@H]1CCNC(=O)[C@H](CCCCN)NC(=O)CN(C2CCCC2)C(=O)CN(CCN)C(=O)[C@H](CCCCN)NC(=O)[C@H](CC(N)=O)NC1=O)Cc1ccccc1 [EB21] (Octanoyl-K[Nphe]K[Dab]NK[Gly(N-2-aminoethyl)][Gly(N-cPent)]K; lactam 4-C) | inhibited by high salt concentrations | 1 µg/mL (≈ 0.816 µM) | 16 µg/mL (≈ 13.1 µM) | > 64 µg/mL | > 64 µg/mL | inhibited by high salt concentrations | 4 µg/mL (≈ 3.26 µM) | > 64 µg/mL | > 64 µg/mL | > 64 µg/mL | to a similar extent as PMB2 itself
